Laboratory results from ChEMBL document CHEMBL4840332, “Pd-Catalyzed Direct Diversification of Natural Anti-Alzheimer's Disease Drug: Synthesis and Biological Evaluation of N-Aryl Huperzine A Analogues” (J Nat Prod, 2021).
Active and inactive are the calls of the source. The calls are words filed in the database; no cut-off is given here.

Tests used:
SH-SY5Y = experiment: Neuroprotective activity against H2O2-induced oxidative stress in human SH-SY5Y cells assessed as cell viability at 50 uM pretreated for 1 hr followed by H2O2 addition and measured after 4 hrs by MTT assay relative to control; type: functional; conditions: time 5 hrs, read-out: Activity
Acetylcholinesterase = Acetylcholinesterase (Electrophorus electricus, UniProt O42275); experiment: Inhibition of electric eel AChE using acetylthiocholine chloride as a substrate incubated for 20 mins followed by substrate addition and measured after 20 mins by Ellman's method
Chain of Acetylcholinesterase (O42275 whole entry): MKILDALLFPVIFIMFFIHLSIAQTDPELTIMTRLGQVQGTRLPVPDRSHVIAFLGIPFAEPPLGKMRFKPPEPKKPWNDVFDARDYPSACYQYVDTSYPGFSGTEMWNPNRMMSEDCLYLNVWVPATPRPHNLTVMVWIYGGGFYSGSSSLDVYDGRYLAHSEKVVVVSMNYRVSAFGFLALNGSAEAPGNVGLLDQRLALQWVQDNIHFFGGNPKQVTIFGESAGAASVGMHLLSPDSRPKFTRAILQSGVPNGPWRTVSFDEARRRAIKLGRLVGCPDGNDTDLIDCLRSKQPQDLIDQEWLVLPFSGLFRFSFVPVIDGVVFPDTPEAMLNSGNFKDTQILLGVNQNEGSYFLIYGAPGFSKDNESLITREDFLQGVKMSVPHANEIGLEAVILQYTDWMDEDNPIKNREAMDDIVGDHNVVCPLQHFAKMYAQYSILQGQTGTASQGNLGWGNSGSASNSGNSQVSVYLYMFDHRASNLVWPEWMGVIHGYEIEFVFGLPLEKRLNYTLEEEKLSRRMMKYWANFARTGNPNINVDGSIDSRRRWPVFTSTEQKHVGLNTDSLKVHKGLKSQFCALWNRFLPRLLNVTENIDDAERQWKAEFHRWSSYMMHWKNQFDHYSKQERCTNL

[1] = target: Acetylcholinesterase (Electrophorus electricus) (UniProt O42275); experiment: Inhibition of electric eel AChE at 100 uM using acetylthiocholine chloride as a substrate incubated for 20 mins followed by substrate addition and measured after 20 mins by Ellman's method relative to control; conditions: time 40.0 min
Chain of Acetylcholinesterase (Electrophorus electricus) (O42275 24-633 limits assumed): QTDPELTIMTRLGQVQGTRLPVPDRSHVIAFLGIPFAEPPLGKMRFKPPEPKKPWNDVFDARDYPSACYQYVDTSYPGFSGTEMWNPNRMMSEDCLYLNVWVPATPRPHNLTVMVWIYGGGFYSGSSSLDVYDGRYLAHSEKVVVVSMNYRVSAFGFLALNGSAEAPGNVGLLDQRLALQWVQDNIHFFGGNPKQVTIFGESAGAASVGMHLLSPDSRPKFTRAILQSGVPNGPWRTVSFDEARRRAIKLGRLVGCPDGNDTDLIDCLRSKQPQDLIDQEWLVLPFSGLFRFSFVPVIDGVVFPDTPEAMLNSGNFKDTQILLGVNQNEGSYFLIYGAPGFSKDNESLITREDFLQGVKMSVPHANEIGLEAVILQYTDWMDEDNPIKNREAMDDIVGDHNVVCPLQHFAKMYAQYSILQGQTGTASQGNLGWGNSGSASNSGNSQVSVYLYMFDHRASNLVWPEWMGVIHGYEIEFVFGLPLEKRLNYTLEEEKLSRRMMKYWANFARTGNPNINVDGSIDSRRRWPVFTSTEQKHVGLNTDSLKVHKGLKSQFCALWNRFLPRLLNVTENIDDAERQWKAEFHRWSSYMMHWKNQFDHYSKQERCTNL

[2] = target: Acetylcholinesterase (Electrophorus electricus) (UniProt O42275); experiment: Inhibition of electric eel AChE at 100 uM using acetylthiocholine chloride as a substrate incubated for 20 mins followed by substrate addition and measured after 20 mins by Ellman's method; conditions: time 40.0 min
[3] = target: Acetylcholinesterase (Electrophorus electricus) (UniProt O42275); experiment: Potency index, ratio of HPA IC50 to test compound IC50 for inhibition of electric eel AChE using acetylthiocholine chloride as a substrate incubated for 20 mins followed by substrate addition and measured after 20 mins by Ellman's method; conditions: time 40.0 min

Structure (SMILES): C/C=C1\[C@H]2C=C(C)C[C@]1(Nc1cccc(C)n1)c1ccc(=O)[nH]c1C2
- viability at 50 µM (SH-SY5Y): > 100%

Structure (SMILES): C/C=C1\[C@H]2C=C(C)C[C@]1(Nc1ccc(F)cc1)c1ccc(=O)[nH]c1C2
- IC50 (Acetylcholinesterase): 4.5 µM
- inhibition [1]: > 92%

Structure (SMILES): C/C=C1\[C@H]2C=C(C)C[C@]1(Nc1cc(C)ccn1)c1ccc(=O)[nH]c1C2
- viability at 50 µM (SH-SY5Y): > 100%
- inhibition [2]: Active

Structure (SMILES): C/C=C1\[C@H]2C=C(C)C[C@]1(Nc1cccc3ncccc13)c1ccc(=O)[nH]c1C2
- viability at 50 µM (SH-SY5Y): > 100%

Structure (SMILES): C/C=C1\[C@H]2C=C(C)C[C@]1(Nc1ccc(C)cc1)c1ccc(=O)[nH]c1C2
- viability at 50 µM (SH-SY5Y): > 100%

Structure (SMILES): C/C=C1\[C@H]2C=C(C)C[C@]1(Nc1ccc(Cl)cc1)c1ccc(=O)[nH]c1C2
- inhibition [2]: Active

Structure (SMILES): C/C=C1\[C@H]2C=C(C)C[C@]1(Nc1ccc3c(c1)OCO3)c1ccc(=O)[nH]c1C2
- viability at 50 µM (SH-SY5Y): > 100%

Structure (SMILES): C/C=C1\[C@H]2C=C(C)C[C@]1(Nc1ccc(OCC)cc1)c1ccc(=O)[nH]c1C2
- viability at 50 µM (SH-SY5Y): > 100%

Structure (SMILES): C/C=C1\[C@H]2C=C(C)C[C@]1(Nc1cccc(OC)c1)c1ccc(=O)[nH]c1C2
- inhibition [2]: Active

Structure (SMILES): C/C=C1\[C@H]2C=C(C)C[C@]1(Nc1cc(C)cc(C)c1)c1ccc(=O)[nH]c1C2
- viability at 50 µM (SH-SY5Y): > 100%

Structure (SMILES): C/C=C1\[C@H]2C=C(C)C[C@]1(Nc1cccc(F)c1)c1ccc(=O)[nH]c1C2
- inhibition [2]: Active

Structure (SMILES): C/C=C1\[C@H]2C=C(C)C[C@]1(Nc1ncccc1C)c1ccc(=O)[nH]c1C2
- IC50 (Acetylcholinesterase): 40 µM
- inhibition [1]: > 92%

Structure (SMILES): C/C=C1\[C@H]2C=C(C)C[C@]1(Nc1cccc(C)c1)c1ccc(=O)[nH]c1C2
- IC50 (Acetylcholinesterase): 47 µM
- viability at 50 µM (SH-SY5Y): > 100%
- inhibition [1]: > 92%

Structure (SMILES): C/C=C1\[C@H]2C=C(C)C[C@]1(Nc1ccc(OC)cn1)c1ccc(=O)[nH]c1C2
- IC50 (Acetylcholinesterase): 1.5 µM
- viability at 50 µM (SH-SY5Y): 144%
- Ratio IC50 [3]: 7.6
- inhibition [1]: 106%

Structure (SMILES): C/C=C1\[C@H]2C=C(C)C[C@]1(Nc1ncc(C)cc1C)c1ccc(=O)[nH]c1C2
- IC50 (Acetylcholinesterase): 43 µM
- viability at 50 µM (SH-SY5Y): > 100%
- inhibition [1]: > 92%

Structure (SMILES): C/C=C1\[C@H]2C=C(C)C[C@]1(Nc1c(C)cc(OC)cc1C)c1ccc(=O)[nH]c1C2
- IC50 (Acetylcholinesterase): 3.9 µM
- viability at 50 µM (SH-SY5Y): > 100%
- inhibition [1]: 96%

Structure (SMILES): C/C=C1\[C@H]2C=C(C)C[C@]1(Nc1ncccc1OC)c1ccc(=O)[nH]c1C2
- inhibition [2]: Active
